# Assay results: US20050250137A1, “Molecular targets of cancer and aging” (priority 2002, published 2005)
# Assays:
# Type in all cases: cell-based, human
# [1] = tested on: immortal MDAH041 cells; test: Senescence phenotype (morphology, senescence associated β-galactosidase at pH 6), immortal MDAH041; conditions: immortal MDAH041 high passage treated with 5AZA-dC (1 μM days 1, 3, 5)
# Procedure: The MDAH041 (p53 frameshift mutation) cell line was derived from primary fibroblasts obtained by skin biopsy from patients with LFS. […] All cells were grown in modified Eagles medium (MEM, Gibco BRL, MD, USA) with 10% fetal calf serum and antibiotics. The CRL1502 cell line was derived from primary fibroblasts obtained by skin biopsy from a normal donor (ATCC 1502, Rockville, Md., USA).
# [2] = tested on: nonimmortal cells; test: Senescence-like state in nonimmortal cells after 5Aza-dC; conditions: nonimmortal cells treated with 5Aza-dC
# [3] = tested on: normal skin fibroblast cell line 1502 (CRL-1502); test: Q-RT-PCR gene expression, normal fibroblasts 1502 treated or untreated with 5-aza-CdR; conditions: before and after 5azaCdR
# [4] = tested on: immortal MDAH087 cell lines; test: Senescence phenotype (morphology, senescence-associated β-galactosidase), immortal MDAH087 cell lines; conditions: 5-aza-dC treatment of immortal MDAH087 cell lines
structure (smiles),measurement,setting,value
"Nc1ncn([C@H]2C[C@H](O)[C@@H](CO)O2)c(=O)n1 [5-aza-dC, 5-aza-2′-deoxycytidine]",senescent phenotype of treated cells,[1],"had flat morphology, contained lipofuscin granules, and showed senescence associated β-galactosidase activity at pH 6"
same,induction of senescence-like state,[2],does not result in an induction of an senescence-like state
same,"(2-5′) oligoadenylate synthetase E gene OAS1 expression, 1502 vs. 1502 5aza",[3]; ↑ increase,2↑ fold
same,"CIG49 expression, 1502 vs. 1502 5aza",[3]; ↑ increase,1.1↑ fold
same,"Interferon-induced 17-kDa/15-kDA expression, 1502 vs. 1502 5aza",[3]; ↑ increase,1.8↑ fold
same,"Interferon-inducible protein p78 expression, 1502 vs. 1502 5aza",[3]; ↑ increase,1.8↑ fold
same,"Interferon-regulatory factor 7B expression, 1502 vs. 1502 5aza",[3]; ↑ increase,1.5↑ fold
same,"STAT 1, 91 kD expression, 1502 vs. 1502 5aza",[3]; ↑ increase,1.8↑ fold
same,"Interferon-inducible 56 kDa protein expression, 1502 vs. 1502 5aza",[3]; ↓ decrease,1.2↓ fold
same,"Interferon-inducible membrane protein 9-27 (IFITM1) expression, 1502 vs. 1502 5aza",[3]; ↓ decrease,1.8↓ fold
same,"MGSF expression, 1502 vs. 1502 5aza",[3]; ↓ decrease,3.2↓ fold
same,"MIF expression, 1502 vs. 1502 5aza",[3]; ↓ decrease,1.7↓ fold
same,"NDN expression, 1502 vs. 1502 5aza",[3]; ↓ decrease,1.4↓ fold
same,senescent phenotype of treated cells,[4],resulted in a flat senescence-like morphology and the activation of the senescence-associated β-galactosidase activity
